Laboratory results taken from US5324750A, “Compositions and methods for drug delivery and chromatography” (priority 1988, dated 1994).
Counter-ions that a name gives are not always drawn.

Experiments:
[1] = Solubility of amino cyclodextrins compared with unsubstituted cyclodextrin; assay type: physicochemical; details: water or other aqueous-based media
Description: Solubility--refers to solution in water or other aqueous-based media.

[2] = Stability of cyclodextrin derivatives in solution / on storage (hydrolysis); assay type: physicochemical

| SMILES | solubility [1] | hydrolysis ([2]; general / in water / during purification) | stability in solution [2] |
| --- | --- | --- | --- |
| NC[C@H]1O[C@@H]2O[C@H]3[C@H](O)[C@@H](O)[C@@H](O[C@H]4[C@H](O)[C@@H](O)[C@@H](O[C@H]5[C@H](O)[C@@H](O)[C@@H](O[C@H]6[C@H](O)[C@@H](O)[C@@H](O[C@H]7[C@H](O)[C@@H](O)[C@@H](O[C@H]8[C@H](O)[C@@H](O)[C@@H](O[C@H]1[C@H](O)[C@H]2O)O[C@@H]8CO)O[C@@H]7CO)O[C@@H]6CO)O[C@@H]5CO)O[C@@H]4CO)O[C@@H]3CO [6^A -amino-6^A -deoxy-β-cyclodextrin hydrochloride salt] | greater than 20 g/100 ml | – | – |
| CC(=O)O[C@H]1[C@H]2O[C@H]3[C@H](O)[C@@H](O)[C@@H](O[C@H]4[C@H](O)[C@@H](O)[C@@H](O[C@H]5[C@H](O)[C@@H](O)[C@@H](O[C@H]6[C@H](O)[C@@H](O)[C@@H](O[C@H]7[C@H](O)[C@@H](O)[C@@H](O[C@@H]([C@@H]1O)[C@@H](CO)O2)O[C@@H]7CO)O[C@@H]6CO)O[C@@H]5CO)O[C@@H]4CO)O[C@@H]3CO [α-2CDOAc, 2^A -O-Acetyl-α-cyclodextrin] | – | total purification could not be achieved due to hydrolysis of the product | – |
| [N-]=[N+]=NC[C@H]1O[C@@H]2O[C@H]3[C@H](O)[C@@H](O)[C@@H](O[C@H]4[C@H](O)[C@@H](O)[C@@H](O[C@H]5[C@H](O)[C@@H](O)[C@@H](O[C@H]6[C@H](O)[C@@H](O)[C@@H](O[C@H]7[C@H](O)[C@@H](O)[C@@H](O[C@H]1[C@H](O)[C@H]2O)O[C@@H]7CO)O[C@@H]6CO)O[C@@H]5CO)O[C@@H]4CO)O[C@@H]3CO [6-Axido-6-Deoxy-α-Cyclodextrin, 6^A -Azido-6^A -deoxy-α-cyclodextrin] | – | – | not very stable in solution |
| NC[C@H]1O[C@@H]2O[C@H]3[C@H](O)[C@@H](O)[C@@H](O[C@H]4[C@H](O)[C@@H](O)[C@@H](O[C@H]5[C@H](O)[C@@H](O)[C@@H](O[C@H]6[C@H](O)[C@@H](O)[C@@H](O[C@H]7[C@H](O)[C@@H](O)[C@@H](O[C@H]8[C@H](O)[C@@H](O)[C@@H](O[C@H]1[C@H](O)[C@H]2O)O[C@@H]8CO)O[C@@H]7CO)O[C@@H]6CO)O[C@@H]5CO)O[C@@H]4CO)O[C@@H]3CO [6^A -amino-6^A -deoxy-β-cyclodextrin, 6^A -Amino-6^A -deoxy-β-cyclodextrin] | about 4.8 g/100 ml | – | not stable in solution |
